According to paper PMC11868595, “Safety, pharmacokinetics and efficacy of HA121-28 in patients with advanced solid tumors and RET fusion-positive non-small-cell lung cancer: a multicenter, open-label, single-arm phase 1/2 trial” (Signal Transduction and Targeted Therapy, 2025):

System: patients with advanced solid tumors
Assay: Phase 1 trial: adverse events (CTCAE), DLT and MTD
Type: in vivo, human
Experimental: The phase 1 trial was a two-part, multicenter, open-label, nonrandomized study to evaluate the safety and preliminary efficacy of HA121-28.
Safety, tolerability, and PK of HA121-28 was assessed in dose-escalation part. The single-patient accelerated titration was carried out at 25 mg and 50 mg; then, the dose escalation proceeded according to a “3 + 3” design in dose range of 100 to 800 mg. Escalation to a higher dose level was considered by the satisfactory review of safety results from the previous lower dose during the first cycle.
The dose-expansion part aims to further access the safety and efficacy of HA121-28 at the selected doses based on data from the dose-escalation part. The RP2D was determined by investigators in view of a thorough review of safety, PK, and efficacy results.
In phase 1 trial, during the dose-escalation part, patients first administered HA121-28 in a single ascending dose under the fasted state, then followed up for seven days. Then, patients received ascending doses of HA121-28 (q.d.) on a 21-day on and 7-day off treatment scheme for a 28-day cycle. For patients deemed beneficial from the treatment by investigators, treatment could remain until disease progression, or they discontinued from the study. In the dose-expansion part of phase 1, as well as phase 2, patients received HA121-28 (q.d.) at the selected doses on a 21-day on and 7-day off treatment scheme until disease progression, or they discontinued from the study.
Treatment-emergent adverse events (TEAEs) were documented during the entire study period. The predefined adverse event of special interest (AESI) was ≥ grade 3 prolonged QT interval. Tumor imaging was performed using contrast-enhanced computed tomography or magnetic resonance imaging at screening, Day 28 of the first cycle, then approximately every eight weeks till the end of the study for phase 1; in phase 2, imaging was scheduled at screening, and every eight weeks during the first 40 weeks, followed by every 12 weeks for the rest of the study period. RECIST 1.1 was used by the independent review committee or investigators for assessment of tumor response. After the original assessment, a repeated assessment was required around four weeks later to confirm a complete or partial response.
The primary endpoints of phase 1 were to investigate the MTD, dose-limiting toxicities, and the incidence and severity of TEAEs. Each TEAE was graded according to the Common Terminology Criteria for Adverse Events (CTCAE, version 5.0) and coded by Medical Dictionary for Regulatory Activities (MedDRA, version 21.0). The secondary endpoints included calculating PK parameters, assessing the ORR and DCR at the recommended dose by investigators as per RECIST 1.1. The exploratory endpoint was PFS.
If grade 2 or higher toxicity related to the study drug occurs in Groups 1 and 2 (as determined by the investigator), dose escalation will proceed using a 3+3 design starting from that dose level. If no DLT is observed at the 800 mg/d dose level after dose escalation, a meeting of investigators will be convened to decide whether to proceed with further dose escalation based on the available PK data, safety, and tolerability information.
5. Definition of DLT and MTD
The following events related to the study drug (including those that are definitely related, highly likely to be related, and possibly related):
(1) Grade 4 hematologic toxicity or grade 3 neutropenia accompanied by a fever of 38.5℃ or higher, or grade 3 thrombocytopenia accompanied by severe bleeding.
(2) Patients who discontinued the medication for more than 7 days due to unresolved toxicity reactions or who discontinued the medication more than twice due to toxicity […]
(3) In the context of supportive treatment, diarrhea of grade 2 lasting more than 7 days, or grade 3 diarrhea lasting more than 3 days.

COc1cc2c(Nc3ccc(Br)cc3F)ncnc2cc1OCCCCN(C)C.Cl.Cl [HA121-28, N-(4-bromo-2-fluorophenyl)-7-(4-(dimethylamino)butoxy)-6-methoxy quinazolin-4-amine dihydrochloride]
2 (3.1) No. (%): Serious TEAE: ALT increased (Phase 1, 600 mg (N=64)) | Serious TEAE: AST increased (Phase 1, 600 mg (N=64))
0 No. (%): Serious TEAE: Acute pancreatitis (Phase 1, 450 mg (N=79)) | Serious TEAE: Anal abscess (Phase 1, 450 mg (N=79)) | Serious TEAE: Aortic intramural hematoma (Phase 1, 450 mg (N=79)) | Serious TEAE: Blood bilirubin increased (Phase 1, 450 mg (N=79)) | Serious TEAE: Blood creatinine increased (Phase 1, 450 mg (N=79)) | Serious TEAE: COVID-19 (Phase 1, 450 mg (N=79)) | Serious TEAE: Coronary artery atherosclerosis (Phase 1, 450 mg (N=79)) | Serious TEAE: Diarrhea (Phase 1, 450 mg (N=79)) | Serious TEAE: Drug eruption (Phase 1, 450 mg (N=79)) | Serious TEAE: Dyspnea (Phase 1, 450 mg (N=79)) | Serious TEAE: Embolism (Phase 1, 450 mg (N=79)) | Serious TEAE: Erythema multiforme (Phase 1, 450 mg (N=79)) | Serious TEAE: Headache (Phase 1, 450 mg (N=79)) | Serious TEAE: Hydronephrosis (Phase 1, 450 mg (N=79)) | Serious TEAE: Hypoalbuminemia (Phase 1, 450 mg (N=79)) | Serious TEAE: Intra-abdominal fluid collection (Phase 1, 450 mg (N=79)) | Serious TEAE: Intracranial tumor hemorrhage (Phase 1, 450 mg (N=79)) | Serious TEAE: Liver injury (Phase 1, 450 mg (N=79)) | Serious TEAE: Lung adenocarcinoma (Phase 1, 450 mg (N=79)) | Serious TEAE: Nausea (Phase 1, 450 mg (N=79)) | Serious TEAE: Nephrolithiasis (Phase 1, 450 mg (N=79)) | Serious TEAE: Platelet counts decreased (Phase 1, 450 mg (N=79)) | Serious TEAE: Pneumonia (Phase 1, 450 mg (N=79)) | Serious TEAE: Prolonged QT interval (Phase 1, 450 mg (N=79)) | Serious TEAE: Pulmonary embolism (Phase 1, 450 mg (N=79)) | Serious TEAE: Pyrexia (Phase 1, 450 mg (N=79)) | Serious TEAE: Respiratory failure (Phase 1, 450 mg (N=79)) | Serious TEAE: Septic shock (Phase 1, 450 mg (N=79)) | Serious TEAE: Sudden cardiac arrest (Phase 1, 450 mg (N=79)) | Serious TEAE: Sudden death (Phase 1, 450 mg (N=79)) | Serious TEAE: Ventricular tachycardia (Phase 1, 450 mg (N=79)) | Serious TEAE: Vomiting (Phase 1, 450 mg (N=79)) | Serious TEAE: Weight loss (Phase 1, 450 mg (N=79)) | Serious TRAE: ALT increased (Phase 1, 450 mg (N=79)) | Serious TRAE: AST increased (Phase 1, 450 mg (N=79)) | Serious TRAE: Abdominal Pain (Phase 1, 450 mg (N=79)) | Serious TRAE: Abdominal distension (Phase 1, 450 mg (N=79)) | Serious TRAE: Acute cholecystitis (Phase 1, 450 mg (N=79)) | Serious TRAE: Acute pancreatitis (Phase 1, 450 mg (N=79)) | Serious TRAE: Anal abscess (Phase 1, 450 mg (N=79)) | Serious TRAE: Aortic intramural hematoma (Phase 1, 450 mg (N=79)) | Serious TRAE: Blood bilirubin increased (Phase 1, 450 mg (N=79)) | Serious TRAE: Blood creatinine increased (Phase 1, 450 mg (N=79)) | Serious TRAE: COVID-19 (Phase 1, 450 mg (N=79)) | Serious TRAE: Cardiac tamponade (Phase 1, 450 mg (N=79)) | Serious TRAE: Coronary artery atherosclerosis (Phase 1, 450 mg (N=79)) | Serious TRAE: Death (Phase 1, 450 mg (N=79)) | Serious TRAE: Diarrhea (Phase 1, 450 mg (N=79)) | Serious TRAE: Drug eruption (Phase 1, 450 mg (N=79)) | Serious TRAE: Dyspnea (Phase 1, 450 mg (N=79)) | Serious TRAE: Embolism (Phase 1, 450 mg (N=79)) | Serious TRAE: Erythema multiforme (Phase 1, 450 mg (N=79)) | Serious TRAE: Headache (Phase 1, 450 mg (N=79)) | Serious TRAE: Hydronephrosis (Phase 1, 450 mg (N=79)) | Serious TRAE: Hypoalbuminemia (Phase 1, 450 mg (N=79)) | Serious TRAE: Intra-abdominal fluid collection (Phase 1, 450 mg (N=79)) | Serious TRAE: Intracranial tumor hemorrhage (Phase 1, 450 mg (N=79)) | Serious TRAE: Liver injury (Phase 1, 450 mg (N=79)) | Serious TRAE: Lung adenocarcinoma (Phase 1, 450 mg (N=79)) | Serious TRAE: Malignant neoplasm progression (Phase 1, 450 mg (N=79)) | Serious TRAE: Multiple organ dysfunction syndrome (Phase 1, 450 mg (N=79)) | Serious TRAE: Nausea (Phase 1, 450 mg (N=79)) | Serious TRAE: Nephrolithiasis (Phase 1, 450 mg (N=79)) | Serious TRAE: Platelet counts decreased (Phase 1, 450 mg (N=79)) | Serious TRAE: Pleural effusion (Phase 1, 450 mg (N=79)) | Serious TRAE: Pneumonia (Phase 1, 450 mg (N=79)) | Serious TRAE: Prolonged QT interval (Phase 1, 450 mg (N=79)) | Serious TRAE: Pulmonary embolism (Phase 1, 450 mg (N=79)) | Serious TRAE: Pyrexia (Phase 1, 450 mg (N=79)) | Serious TRAE: Respiratory failure (Phase 1, 450 mg (N=79)) | Serious TRAE: Seizure (Phase 1, 450 mg (N=79)) | Serious TRAE: Septic shock (Phase 1, 450 mg (N=79)) | Serious TRAE: Sudden cardiac arrest (Phase 1, 450 mg (N=79)) | Serious TRAE: Sudden death (Phase 1, 450 mg (N=79)) | Serious TRAE: Ventricular tachycardia (Phase 1, 450 mg (N=79)) | Serious TRAE: Vomiting (Phase 1, 450 mg (N=79)) | Serious TRAE: Weight loss (Phase 1, 450 mg (N=79)) | Serious TEAE: Abdominal Pain (Phase 1, 600 mg (N=64)) | Serious TEAE: Abdominal distension (Phase 1, 600 mg (N=64)) | Serious TEAE: Acute cholecystitis (Phase 1, 600 mg (N=64)) | Serious TEAE: Aortic intramural hematoma (Phase 1, 600 mg (N=64)) | Serious TEAE: Arrhythmia (Phase 1, 600 mg (N=64)) | Serious TEAE: COVID-19 (Phase 1, 600 mg (N=64))
15 (19.0) No. (%): Serious TEAE: Any (Phase 1, 450 mg (N=79))
17 (26.6) No. (%): Serious TEAE: Any (Phase 1, 600 mg (N=64))
2 (2.5) No. (%): Serious TEAE: Hemoptysis (Phase 1, 450 mg (N=79)) | Serious TEAE: Seizure (Phase 1, 450 mg (N=79)) | Serious TRAE: Hemoptysis (Phase 1, 450 mg (N=79))
9 (11.4) No. (%): Serious TRAE: Any (Phase 1, 450 mg (N=79))
1 (1.3) No. (%): Serious TEAE: Arrhythmia (Phase 1, 450 mg (N=79)) | Serious TEAE: Cardiac tamponade (Phase 1, 450 mg (N=79)) | Serious TEAE: Death (Phase 1, 450 mg (N=79)) | Serious TEAE: Hypertension (Phase 1, 450 mg (N=79)) | Serious TEAE: Intestinal obstruction (Phase 1, 450 mg (N=79)) | Serious TEAE: Malignant neoplasm progression (Phase 1, 450 mg (N=79)) | Serious TEAE: Multiple organ dysfunction syndrome (Phase 1, 450 mg (N=79)) | Serious TEAE: Pleural effusion (Phase 1, 450 mg (N=79)) | Serious TEAE: Pneumonitis (Phase 1, 450 mg (N=79)) | Serious TEAE: Rash (Phase 1, 450 mg (N=79)) | Serious TEAE: Rectal hemorrhage (Phase 1, 450 mg (N=79)) | Serious TEAE: Upper respiratory tract infection (Phase 1, 450 mg (N=79)) | Serious TRAE: Arrhythmia (Phase 1, 450 mg (N=79)) | Serious TRAE: Hypertension (Phase 1, 450 mg (N=79)) | Serious TRAE: Intestinal obstruction (Phase 1, 450 mg (N=79)) | Serious TRAE: Pneumonitis (Phase 1, 450 mg (N=79)) | Serious TRAE: Rash (Phase 1, 450 mg (N=79)) | Serious TRAE: Rectal hemorrhage (Phase 1, 450 mg (N=79)) | Serious TRAE: Upper respiratory tract infection (Phase 1, 450 mg (N=79))
1 (1.6) No. (%): Serious TEAE: Acute pancreatitis (Phase 1, 600 mg (N=64)) | Serious TEAE: Anal abscess (Phase 1, 600 mg (N=64)) | Serious TEAE: Blood bilirubin increased (Phase 1, 600 mg (N=64)) | Serious TEAE: Blood creatinine increased (Phase 1, 600 mg (N=64))
